Results taken from PMC9501377, “New Diarylamine KV10.1 Inhibitors and Their Anticancer Potential” (Pharmaceutics, 2022).
Where “and” joins values, the source holds several entries; their conditions need not be identical. Equal values may be shown once.

Legend:
hERG = hERG (Homo sapiens, UniProt Q12809); experiment: Two-electrode voltage-clamp on Xenopus laevis oocytes expressing hERG; type: cell-based; design: expressed in transfected cells; host or cells: Xenopus laevis oocytes (cRNA injection); details: voltage-clamped; for inhibition at 10 µM: human, Xenopus laevis oocytes expressing hERG, pH 7.5, 10 μM
Excerpt: (§1) Stage V–VI oocytes were isolated by partial ovariectomy from Xenopus laevis frogs (African clawed frog). Mature female frogs were purchased from CRB Xénopes (Rennes, France) and were housed in the Aquatic Facility (KU Leuven) in compliance with the regulations of the European Union (EU) concerning the welfare of laboratory animals as declared in Directive 2010/63/EU. The use of Xenopus laevis was approved by the Animal Ethics Committee of the KU Leuven (Project nr. P186/2019). After anesthetising the frogs by a 15 min submersion in 0.1% tricaine methanesulphonate (pH 7.0), the oocytes were collected. The isolated oocytes were then washed with a 1.5 mg/mL collagenase solution for 2 h to remove the follicle layer.
(§2) Ion channels (KV10.1 and hERG) were expressed in Xenopus laevis oocytes, by linearisation of the plasmids and subsequent in vitro transcription using a commercial T7 or SP6 mMESSAGE mMACHINE transcription kit (Ambion, Carlsbad, CA, USA). Defolliculated Xenopus oocytes were then injected with 20–50 nL of the cRNA at a concentration of 1 ng/nL using a micro-injector (Drummond Scientific1, Broomall, PA, USA). The oocytes were incubated in a solution containing (in mM): NaCl, 96; KCl, 2; CaCl2, 1.8; MgCl2, 2 and HEPES, 5 (pH 7.4), supplemented with 50 mg/L gentamycin sulphate and […]. After ex vivo translation, the ion channels are correctly inserted in the cell membrane of the oocytes.
(§3) Two-electrode voltage-clamp recordings were performed at room temperature (18–22 °C) using a Geneclamp 500 amplifier (Molecular Devices, San Jose, CA, USA) controlled by a pClamp data acquisition system (Axon Instruments1, Union City, CA, USA) and using an integrated digital TEVC amplifier controlled by HiClamp, an automated Voltage-Clamp Screening System (Multi Channel Systems MCS GmbH, Reutlingen, Germany). Whole-cell currents from oocytes were recorded 1–7 days after injection. The bath solution composition was ND96 (in mM): NaCl, 96; KCl, 2; CaCl2, 1.8; MgCl2, 2 and HEPES, 5 (pH 7.5). Voltage and current electrodes were filled with a 3 M solution of KCl in H2O. Resistances of both electrodes were kept between 0.5 and 1.5 MΩ. The elicited Kv10.1 and hERG currents were filtered at 0.5 kHz and sampled at 2 kHz using a four-pole low-pass Bessel filter. Leak subtraction was performed using a p/4 protocol. Starting from a holding potential of −90 mV, currents for Kv10.1 were evoked by 1 s depolarizing pulses to 0 mV and currents for hERG were evoked by 2.5 s depolarizing prepulses to +40 mV, followed by hyperpolarizing pulses to −120 mV for 2.5 s. The concentration dependency of all compounds was assessed by measuring the current inhibition in the presence of increasing compound concentrations. To this end, a stock solution of the compounds was prepared in 100% DMSO for the sake of solubility. From this stock solution, adequate dilutions with a maximum of 0.5% DMSO were made for testing. The data of the concentration–response curves were fitted with the Hill equation: y = 100/{1 + (IC50/[compound])^h}, where y is the amplitude of the compound- induced effect, IC50 is the compound concentration at half-maximal efficacy, (compound) is the compound concentration, and h is the Hill coefficient.
(§4) All electrophysiological data are presented as means ± SEM of n ≥ 3 independent experiments unless otherwise indicated. Oocyte data were analysed using pClamp Clampfit 10.4 (Molecular Devices, Downingtown, PA, USA) and OriginPro 9 (Originlab, Northampton, MA, USA) or GraphPad Prism 8 software (GraphPad Software, Inc., San Diego, CA, USA). Patch-clamp data analysis was performed using FitMaster (HEKA Electronics), IgorPro (Wavemetrics, Inc., Lake Oswego, OR, USA) and GraphPad Prism 9 (GraphPad Software, Inc., San Diego, CA, USA). The Dunnett test and one-way ANOVA were performed to calculate the significance of the induced inhibition compared to the control (p < 0.05).

KV10.1 = target: T1, KV10.1 (Homo sapiens, UniProt O95259); experiment: Two-electrode voltage-clamp on Xenopus laevis oocytes expressing KV10.1; type: cell-based; details: voltage-clamped
T1 construct: expressed in transfected cells; host or cells: Xenopus laevis oocytes (cRNA injection)
T1 sequence (O95259 1-989): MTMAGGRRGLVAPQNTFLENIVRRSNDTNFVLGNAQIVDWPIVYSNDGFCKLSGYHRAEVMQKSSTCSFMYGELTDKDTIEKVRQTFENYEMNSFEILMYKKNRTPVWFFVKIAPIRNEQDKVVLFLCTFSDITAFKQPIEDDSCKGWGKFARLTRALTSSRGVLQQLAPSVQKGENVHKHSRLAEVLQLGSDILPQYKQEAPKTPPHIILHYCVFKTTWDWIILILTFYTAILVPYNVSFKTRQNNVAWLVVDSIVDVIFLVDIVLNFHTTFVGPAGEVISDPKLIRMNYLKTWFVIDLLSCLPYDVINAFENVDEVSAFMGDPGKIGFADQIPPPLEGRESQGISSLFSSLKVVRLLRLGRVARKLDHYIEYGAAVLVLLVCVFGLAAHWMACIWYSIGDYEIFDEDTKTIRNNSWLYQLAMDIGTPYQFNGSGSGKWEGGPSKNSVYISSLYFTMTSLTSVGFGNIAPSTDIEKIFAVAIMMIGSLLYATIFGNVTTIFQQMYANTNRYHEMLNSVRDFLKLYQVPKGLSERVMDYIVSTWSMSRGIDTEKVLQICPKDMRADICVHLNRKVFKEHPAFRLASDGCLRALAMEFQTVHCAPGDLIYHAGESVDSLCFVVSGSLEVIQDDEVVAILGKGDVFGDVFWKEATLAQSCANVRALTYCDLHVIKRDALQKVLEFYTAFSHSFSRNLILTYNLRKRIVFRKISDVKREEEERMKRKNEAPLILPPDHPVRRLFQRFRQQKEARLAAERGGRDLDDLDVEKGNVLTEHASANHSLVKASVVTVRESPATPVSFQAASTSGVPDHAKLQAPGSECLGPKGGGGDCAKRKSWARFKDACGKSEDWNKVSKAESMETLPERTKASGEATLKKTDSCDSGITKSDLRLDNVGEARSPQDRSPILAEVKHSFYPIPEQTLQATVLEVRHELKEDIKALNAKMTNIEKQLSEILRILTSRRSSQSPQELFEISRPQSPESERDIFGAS
Excerpt: as §1, §2, §3, §4

Chain of hERG (Q12809 whole entry): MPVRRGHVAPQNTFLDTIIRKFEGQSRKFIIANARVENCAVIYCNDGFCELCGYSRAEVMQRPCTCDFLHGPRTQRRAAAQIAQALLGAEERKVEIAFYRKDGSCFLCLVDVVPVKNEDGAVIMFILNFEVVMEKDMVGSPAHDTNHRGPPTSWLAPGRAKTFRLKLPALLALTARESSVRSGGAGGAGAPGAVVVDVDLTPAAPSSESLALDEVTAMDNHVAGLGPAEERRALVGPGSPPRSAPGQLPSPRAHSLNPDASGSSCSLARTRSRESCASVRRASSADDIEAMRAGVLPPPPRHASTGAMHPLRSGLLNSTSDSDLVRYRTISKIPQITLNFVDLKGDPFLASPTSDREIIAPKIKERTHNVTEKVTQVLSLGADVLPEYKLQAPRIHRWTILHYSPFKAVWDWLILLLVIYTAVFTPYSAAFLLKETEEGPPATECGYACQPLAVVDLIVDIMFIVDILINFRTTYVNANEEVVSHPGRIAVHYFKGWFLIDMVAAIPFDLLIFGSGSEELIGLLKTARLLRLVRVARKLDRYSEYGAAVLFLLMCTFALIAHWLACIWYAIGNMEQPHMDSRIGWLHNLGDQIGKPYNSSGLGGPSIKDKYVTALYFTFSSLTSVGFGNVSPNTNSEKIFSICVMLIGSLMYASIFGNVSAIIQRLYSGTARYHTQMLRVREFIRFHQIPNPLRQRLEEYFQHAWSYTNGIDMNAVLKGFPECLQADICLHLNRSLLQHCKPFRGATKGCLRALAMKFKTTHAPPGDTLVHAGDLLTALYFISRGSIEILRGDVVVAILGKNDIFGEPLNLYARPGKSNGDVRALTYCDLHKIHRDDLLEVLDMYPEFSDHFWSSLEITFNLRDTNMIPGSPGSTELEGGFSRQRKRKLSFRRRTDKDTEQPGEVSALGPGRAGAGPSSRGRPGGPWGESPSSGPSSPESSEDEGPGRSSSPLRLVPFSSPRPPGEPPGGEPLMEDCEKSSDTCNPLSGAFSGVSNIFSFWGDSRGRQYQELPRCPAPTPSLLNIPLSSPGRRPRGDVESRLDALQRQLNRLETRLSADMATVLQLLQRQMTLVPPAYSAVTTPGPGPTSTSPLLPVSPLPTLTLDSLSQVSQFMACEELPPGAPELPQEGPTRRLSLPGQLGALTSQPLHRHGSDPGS

| Compound | inhibition at 10 µM (hERG) [%] | inhibition at 10 µM (KV10.1) [%] | IC50 (hERG) | IC50 (KV10.1) |
| --- | --- | --- | --- | --- |
| COC(=O)c1ccccc1Oc1ccc(OCC(O)CN2CCOCC2)cc1 (stereo not shown) [Compound 5a, Methyl 2-(4-(2-hydroxy-3-morpholinopropoxy)phenoxy)benzoate] | 15 | -4.54 | – | – |
| O=[N+]([O-])c1cc(C(F)(F)F)ccc1Oc1ccc(OCC(O)CN2CCOCC2)cc1 (stereo not shown) [Compound 5b, 1-Morpholino-3-(4-(2-nitro-4-(trifluoromethyl)phenoxy)phenoxy)propan-2-ol] | 11.5 | 24.9 | – | – |
| O=C(Nc1ccc(OCC(O)CN2CCOCC2)cc1)c1ccc(C(F)(F)F)cc1[N+](=O)[O-] (stereo not shown) [Compound 5c, N-(4-(2-Hydroxy-3-morpholinopropoxy)phenyl)-2-nitro-4-(trifluoromethyl)benzamide] | 21.5 | -0.66 | – | – |
| COC(=O)c1ccccc1Nc1ccc(OCC(O)CN2CCOCC2)cc1 (stereo not shown) [Compound 5d, Methyl 2-((4-(2-hydroxy-3-morpholinopropoxy)phenyl)amino)benzoate] | 20.4 | -2.11 | – | – |
| O=[N+]([O-])c1ccc(Nc2ccc(OCC(O)CN3CCOCC3)cc2)c([N+](=O)[O-])c1 (stereo not shown) [Compound 5f, 1-(4-((2,4-Dinitrophenyl)amino)phenoxy)-3-morpholinopropan-2-ol] | 65.8 | 41.3 | – | – |
| CN(C)CC(O)COc1ccc(Oc2ccc(C(F)(F)F)cc2[N+](=O)[O-])cc1 (stereo not shown) [Compound 6a, 1-(Dimethylamino)-3-(4-(2-nitro-4-(trifluoromethyl)phenoxy)phenoxy)propan-2-ol] | 69.1 | 23.7 | – | – |
| CN(C)CC(O)COc1ccc(NC(=O)c2ccc(C(F)(F)F)cc2[N+](=O)[O-])cc1 (stereo not shown) [Compound 6b, N-(4-(3-(Dimethylamino)-2-hydroxypropoxy)phenyl)-2-nitro-4-(trifluoromethyl)benzamide] | 9.83 | -0.41 | – | – |
| COC(=O)c1cc(C(F)(F)F)ccc1Nc1ccc(OCC(O)CN(C)C)cc1 (stereo not shown) [Compound 6c, Methyl 2-((4-(3-(dimethylamino)-2-hydroxypropoxy)phenyl)amino)-5-(trifluoromethyl)benzoate] | 63.7 | 9.91 | – | – |
| CN(C)CC(O)COc1ccc(Nc2ccc([N+](=O)[O-])cc2[N+](=O)[O-])cc1 (stereo not shown) [Compound 6d, 1-(Dimethylamino)-3-(4-((2,4-dinitrophenyl)amino)phenoxy)propan-2-ol] | 74.3 | 44.1 | – | – |
| O=C(O)c1ccccc1Nc1ccc(OCC(O)CN2CCOCC2)cc1 (stereo not shown) [Compound 10a, 2-((4-(2-Hydroxy-3-morpholinopropoxy)phenyl)amino)benzoic acid] | 3.42 | 13 | – | – |
| CN(C)CC(O)COc1ccc(Nc2ccc(C(F)(F)F)cc2C(=O)O)cc1 (stereo not shown) [Compound 10b, 2-((4-(3-(Dimethylamino)-2-hydroxypropoxy)phenyl)amino)-5-(trifluoromethyl)benzoic acid] | 14.7 | 15.7 | – | – |
| O=[N+]([O-])c1cc(C(F)(F)F)ccc1Nc1ccc(OCCN2CCOCC2)cc1 [Compound 13, N-(4-(2-Morpholinoethoxy)phenyl)-2-nitro-4-(trifluoromethyl)aniline] | 34.7 | 22.6 | – | – |
| O=[N+]([O-])c1cc(C(F)(F)F)ccc1Nc1ccc(OCc2ccccc2)cc1 [Compound 14, N-(4-(Benzyloxy)phenyl)-2-nitro-4-(trifluoromethyl)aniline] | 4.23 | -1.18 | – | – |
| CNCC(O)COc1ccc(Nc2ccc(C(F)(F)F)cc2[N+](=O)[O-])cc1 (stereo not shown) [Compound 15, 1-(Methylamino)-3-(4-((2-nitro-4-(trifluoromethyl)phenyl)amino)phenoxy)propan-2-ol] | 58.6 | 39.9 | – | – |
| O=C(Cc1ccc(Cl)c(Cl)c1)NC1CCN(CC(O)COc2ccc(Nc3ccc(C(F)(F)F)cc3[N+](=O)[O-])cc2)CC1 (stereo not shown) [Compound 16d, 2-(3,4-Dichlorophenyl)-N-(1-(2-hydroxy-3-(4-((2-nitro-4-(trifluoromethyl)phenyl)amino)phenoxy)propyl)piperidin-4-yl)acetamide] | – | 0 | – | – |
| CCN(CC)CCOc1ccc(Nc2ccc(C(F)(F)F)cc2[N+](=O)[O-])cc1 [Compound 17a, N-(4-(2-(Diethylamino)ethoxy)phenyl)-2-nitro-4-(trifluoromethyl)aniline] | 64.5 | 63.5 | 2.01 µM and 2 µM | 3.58 µM and 3.6 µM |
| CCN(CC)CCOc1c(Br)cc(Nc2ccc(C(F)(F)F)cc2[N+](=O)[O-])cc1Br [Compound 17b, 3,5-Dibromo-4-(2-(diethylamino)ethoxy)-N-(2-nitro-4-(trifluoromethyl)phenyl)aniline] | 60.1 | 19.5 | – | – |
| CCN(CC)CCOc1c(Cl)cc(Nc2ccc(C(F)(F)F)cc2[N+](=O)[O-])cc1Cl [Compound 17c, 3,5-Dichloro-4-(2-(diethylamino)ethoxy)-N-(2-nitro-4-(trifluoromethyl)phenyl)aniline] | 54.7 | 9.21 | – | – |
| CN(C)CCOc1ccc(Nc2ccc(C(F)(F)F)cc2[N+](=O)[O-])cc1 [Compound 18a, N-(4-(2-(Dimethylamino)ethoxy)phenyl)-2-nitro-4-(trifluoromethyl)aniline] | 65.2 | 41.7 | 7.56 ± 0.41 µM | 11.6 ± 0.35 µM |
| CN(C)CCOc1c(Br)cc(Nc2ccc(C(F)(F)F)cc2[N+](=O)[O-])cc1Br [Compound 18b, 3,5-Dibromo-4-(2-(dimethylamino)ethoxy)-N-(2-nitro-4-(trifluoromethyl)phenyl)aniline] | 66.8 | 26 | – | – |
